In brackets after ≈: the same amount, converted by molar mass.
Key:
[1] = system: guinea pig tracheal chain preparations; experiment: spontaneous tone of guinea pig tracheal chain (ring) preparation, relaxant effect; settings: for absolute separation ratio: atrial ED25 versus tracheal ED50, guinea pig in vitro preparations
Excerpt: (§1) Two in vitro test systems used for determining selective β-stimulant activity are: (1) effect on spontaneous tone of guinea pig tracheal chain preparations as a measure of β-stimulant (direct relaxant) effect on airway smooth muscle, and (2) effect on rate of spontaneously beating right atria of the guinea pig as a measure of β-stimulant effect on cardiac muscle.

[2] = system: right atria of the guinea pig; experiment: rate of spontaneously beating guinea pig right atria; settings: Cavia porcellus; in vitro; β-stimulant effect on cardiac muscle; read-out: ED25, increasing the rate of contraction of guinea pig right atria
Excerpt: as §1

EC50 ([1]; Cavia porcellus, in vitro, β-stimulant (direct relaxant) effect on airway smooth muscle, read-out: ED50, relaxes the spontaneous tone of guinea pig tracheal ring preparation) [µg/mL] | Structure (SMILES) | absolute separation ratio [1] | EC25 [2] [µg/mL] | improvement of absolute separation ratio compared to d,l isoproterenol ([1]; versus d,l isoproterenol in similar in vitro preparations) [fold]
– | CC(C)NCC(O)c1ccc(O)c(O)c1 (racemic) [d,l isoproterenol, reference compound] | 0.5 | – | –
0.00414 (≈ 0.00861 µM) | Oc1ccc(OCC(O)CNCCCCCCNCC(O)COc2ccc(O)c(O)c2)cc1O (centres unmarked) [N,N'-bis[3,4-dihydroxyphenoxy)-2-hydroxypropyl]-1,6-diaminohexane] | 7 | 0.029 (≈ 0.0603 µM) | 14
